The results in this text go back to article PMC8885659, “Asymmetric, amphiphilic RGD conjugated phthalocyanine for targeted photodynamic therapy of triple negative breast cancer” (Signal Transduction and Targeted Therapy, 2022).

A value given as a limit tells only on which side of the number the result lay.

The nature of series [1]: Singlet oxygen yield detection with DPBF. In kind it is physicochemical. The settings on record: physiological saline containing 1% CEL; for Slope of DPBF bleaching (singlet oxygen yield): laser 610 nm, 225 mW/cm^2, DPBF absorbance at 414 nm. The text has this:
Generation of singlet oxygen was detected chemically using the disodium salt of 1,3-diphenylisobenzofuran (DPBF) as a singlet oxygen sensor. DPBF is bleached by singlet oxygen to its corresponding endoperoxide. The reaction was monitored spectrophotometrically by recording the decrease in optical density at 414 nm. The bleaching rate of DPBF can also be used as a method to compare the yield of singlet oxygen. In the actual measurement of singlet oxygen yield, a certain amount of DPBF ethanol solution and test solution are mixed together in a dark room. A rotor is added to the cuvette, and the laser is irradiated for different times while stirring. The absorption spectra of the mixed solution was tested after different time of irradiation with an ultraviolet spectrophotometer, then the change of the absorption value of DPBF at 414 nm was obtained.

In another series the test system is 4T1 tumor model. The experiment in a line: In vivo photodynamic activity. The settings on record: for Tumor volume without light versus PBS and Light groups: no laser. Details: species or system Balb/c mice. How it is done:
(§1) Balb/c female mice aged 6 to 8 weeks were purchased from Beijing Weitong Lihua Laboratory Animal Technology. All animal experiments were performed under protocols approved by the Institutional Animal Care and Use Committee (IACUC) of Peking University. In situ breast cancer tumor models were established by injecting 2 * 10^7 4T1-luci tumor cells under the fourth pair of mammary glands in mice. Treatment was initiated approximately 6 days after inoculation when the tumor volume grew to approximately 100 mm^3.
(§2) PDT treatment was performed on the 7th day when the 4T1 tumor model was established in mice, and the average initial tumor volume was 100 mm^3. The test groups were as follows: Group 1: PBS; Group 2: Light; Group 3: SC; Group 4: RSP; Group 5: SC + Light, Group 6: RSP + Light. First, 200 μl of RSP (2 mg/kg), SC (2 mg/kg), and PBS were injected intravenously. 4 h after the injection, the tumor area was irradiated with 671 nm laser (0.1 W/cm^2) for 6 min with a total laser intensity of 36 J/cm^2 and laser treatment was performed on groups 2, 5, and 6. After PDT treatment, the tumor size was measured every day using electronic vernier calipers until 12 days. The maximum width (X) and length (Y) of the tumor were measured, and the following formula was used to calculate the tumor volume: V = (X^2Y)/2. From the first day of treatment, the weight change of each group of mice was recorded until the end of the treatment. Mice in each group were selected randomly, and excised tumors for pathological analysis. In order to investigate the biological safety of this PDT method, after the treatment, the main organs (heart, liver, spleen, lung, kidney) of each group of differently treated mice were dissected, and H&E section staining was performed to evaluate their Pathological changes.

Series [2] can be described thus: Biological safety in the PDT study (body weight, H&E of main organs). In kind it is in vivo, Balb/c mice. The settings on record: for Mouse body weight change: all treatment groups with or without light, 2 mg/kg i.v., n = 5. The procedure:
as §2

For series [3], the system named is 4T1 cells. Kind of series: Cytotoxicity assay (CCK8), phototoxicity and dark toxicity. In kind it is cell-based, murine. The settings on record: for Dark toxicity: cell viability without light: no light, CCK8, n = 5. The procedure: 4T1 cells were seeded in a 96-well plate at a density of 10,000 cells/well, and each well was cultured overnight with 200 μL of DMEM medium containing 10% FBS. On the second day, the original medium was discarded and replaced with DMEM medium containing different concentrations of SC or RSP (containing 0.05% CEL). After 4 h of incubation, the cells were incubated with fresh medium and irradiated with a xenon lamp. Then 10 μL of CCK8 was added to each well, and the incubation continued for 1 h. After the incubation, the absorbance value at 450 nm was measured with enzyme labels (Synergy HT, BioTek, USA). At the same time, a blank control was set to determine cell viability. The dark toxicity test method was similar, except that no light was applied to the cells.

In series [4] the test system is 4T1 cells. Kind of series: Subcellular co-localization with lysosomes (confocal). The settings on record: 1 μM, 4 h incubation, Lysotracker, n = 3. In kind it is cell-based, murine. How it is done:
Subcellular colocalization pictures were taken under a laser confocal microscope (Nikon A1R high-speed confocal laser microscope, Nikon Corporation, Japan). 4T1 cells were cultured in 35 mm cell culture dishes at a density of 20,000 cells/dish, and cultured overnight. After 24 h, the medium was replaced with DMEM medium (containing 0.05% CEL) containing 1 μM RSP or SC. After 4 h of incubation, the plates were washed with PBS and then stained with DMEM medium containing Lysotracker for 30 min and washed again with PBS. Then fixed and counterstained with DAPI. The light was always avoided during the entire operation. The dynamic change of fluorescence on any straight line passing through the whole cell was analyzed by Image J. The result was plot to qualitatively analyze the co-localization situation of lysosome and phthalocyanine. In order to more completely reflect the co-localization of lysosomes and phthalocyanines, the Pearson co-localization coefficient was analyzed on the fluorescence fields of cells obtained from three photographs, and the difference in lysosomal localization of RSP and SC in the cells was quantitatively analyzed.

Series [5] deals with 4T1 cells. Kind of series: Apoptosis/necrosis by flow cytometry after TPDT. The format is cell-based, murine. The settings on record: 500 nM, 4 h incubation, with light. The procedure: The apoptosis rate and necrosis rate of the cells were detected on the flow cytometer according to the operating procedure of the apoptosis detection kit. 4T1 cells were seeded in a six-well plate at a density of 5 * 10^5 cells/well overnight. On the second day, the medium was changed to DMEM medium containing 500 nM RSP/SC and 1% CEL, and the cells were incubated for 4 h. Then the medium was replaced with fresh DMEM. The cells were applied light/ no light, and then digested.

Series [6] can be described thus: Photostability under laser irradiation. The settings on record: 4 mins of laser irradiation, 225 mW/cm^2, UV-vis absorption. In kind it is physicochemical. How it is done:
In order to better simulate the situation of photosensitive molecules in practical applications, the singlet oxygen yield of RSP in physiological saline containing 1% CEL was measured (Fig. 2c). The slope of RSP and SC was 0.06481 and 0.07165 respectively (Supplementary Fig. 6). […] We further determined the photostability of RSP. […] The axial modification of RSP helped to improve the stability of the phthalocyanine parent ring when singlet oxygen was generated, so that it was less prone to degrade.

Series [7] is described as follows: Blood circulation dynamics and organ distribution. The format is in vivo, Balb/c mice. How it is done: The ideal targeted photosensitizer should be able to quickly accumulate at the tumor site and metabolize from normal organs after injection. […] After 24 h, 48 h, and 120 h of RSP injection, the major organs of the mice were dissected and their fluorescence was quantified.
In order to investigate the blood clearance rate of RSP, healthy male Balb/c mice were selected as experimental subjects, and blood was collected from the orbit to detect the drug concentration in the body at different time points. Fluorescence labeled Organism Bioimaging Instrument (FOBI, South Korea) was used to measure the relative concentration of phthalocyanine in mouse plasma. Mice were injected with RSP through the tail vein at a dose of 2 mg/kg. At different time intervals, blood samples were collected from the orbits of mice with capillary tubes coated with heparin, placed on ice, and centrifugated to separate blood cells (3000 g, 10 min). The resulting plasma samples were analyzed for phthalocyanine concentration.

A further series has as its system 4T1 tumor. The experiment in a line: In vivo fluorescence imaging of tumor targeting. Set-up: species or system Balb/c mice. How it is done:
as §1
For in vivo fluorescence imaging, RSP or SC dissolved in physiological saline (containing 1% CEL) was injected intravenously at a dose of 2 mg/kg into tumor-bearing mice (both in situ and subcutaneous models). Then IVIS Spectrum In Vivo Imaging System (PerkinElmer) was utilized to collect the fluorescence signals of RSP (660 nm/710 nm) in subcutaneous models at different times after the injection. The small animal fluorescence imaging system was used for in situ tumor-bearing mice imaging, taking pictures, and recording. The excitation wavelength was 660 nm, and the fluorescence signal was collected with a 700 nm filter. Then, the FOBI software was used to process the data to analyze the enrichment of phthalocyanines in the tumors of the mice after different injection times. The mice after 24 h fluorescence imaging were sacrificed, and the hearts, livers, spleens, lungs, kidneys, and tumors were collected for analysis of fluorescence semiquantitative biodistribution.

Series [8] is described as follows: Solubility and aggregation state (absorption spectra). In kind it is physicochemical. The text has this: Therefore, we dissolved RSP in physiological saline containing 1% CEL, DMEM medium containing 0.05% CEL, and DMF (as a control) to measure its absorption and fluorescence spectrum. […] RSP had the characteristics of not being aggregated in physiological saline and cell culture media, which provides a basis for further investigation of its phototoxicity.

The mark [9] stands for this setting: subcutaneous tumor model, 2 mg/kg tail vein, n = 3.
The mark [10] stands for this setting: RSP + light (RSPL), tumor sections, n = 3.

With “2[4-(3-carboxypropyl)phenoxy]silicon phthalocyanine [SC]”, the “Slope of DPBF bleaching (singlet oxygen yield)” value in series [1] came out at 0.07165. For the same molecule, in the series with 4T1 tumor model (2 mg/kg i.v., n = 5), the “Tumor volume without light versus PBS and Light groups” value is “no significant difference”. In addition, the “Inhibition of tumor cell proliferation with light, in words” value with 4T1 tumor model (SC + light, 2 mg/kg i.v., 671 nm laser 36 J/cm^2, tumor weight, n = 5) is given as “not significantly inhibited”. The “Mouse body weight change” value in series [2] is given as “no significant changes”. In addition, the “Dark toxicity: cell viability without light” value in the series on 4T1 cells [3] was “did no significantly decreased”. Moreover, the “Lysosomal colocalization index (Pearson co-localization coefficient)” value in the series on 4T1 cells [4] is listed as 0.38.
Consider `N=C(N)NCCC[C@@H]1NC(=O)[C@H](CCCCNC(=O)CCc2ccc(O[Si]3(Oc4ccc(CCC(=O)O)cc4)n4c5c6ccccc6c4N=C4N=C(N=c6c7ccccc7c(n63)=NC3=NC(=N5)c5ccccc53)c3ccccc34)cc2)NC(=O)[C@@H](Cc2ccc(O)cc2)NC(=O)[C@H](CC(=O)O)NC(=O)CNC1=O` (stereo partly shown) [RSP, cRGDyK modified targeting silicon phthalocyanine], for which the plasma half-life (t1/2α) came to 45 min. Further, the “Increase of apoptotic rate compared with SC” value with 4T1 cells [5] was found to be 9.73%. Further, in series [6], the “Absorbance at maximum absorption wavelength remaining after irradiation (photostability)” value is given as “about 80%”. The “Elimination half-time (t1/2β)” value in [7] (healthy male Balb/c mice, 2 mg/kg tail vein, plasma fluorescence (FOBI)) was 463.02 min. Besides, the “Fluorescence of main organs 120 h after injection” value in series [7] (mice, 2 mg/kg intravenous, 120 h, n = 3) is listed as “no obvious fluorescent signal can be detected”. In addition, the “Fraction metabolized in 48 h” value in series [7] (mice, 2 mg/kg intravenous, fluorescence of main organs, n = 3) is reported as “more than 90%”. Further, in [1], the “Decrease of singlet oxygen yield relative to SC” value was 10% and the “Slope of DPBF bleaching (singlet oxygen yield)” value worked out at 0.06481. For the same molecule, in the series with 4T1 tumor (organs and tumors dissected 24 h after injection, 2 mg/kg, n = 3), the “Fluorescence signal of excised tumor, relative to SC (semiquantitative)” value is on record as “four folds higher than that of SC”. The “Fluorescence intensity in orthotopic mouse tumors, folds of control” value with 4T1 tumor (orthotopic mouse tumors, as worded in the introduction) amounted to 4 folds. In addition, in the series with 4T1 tumor (setting [9]), the “Onset of tumor accumulation after injection” value is listed as ≤ 0.5 h and the “Time of peak tumor fluorescence intensity after injection” value was 6 h. In addition, the “Fluorescence intensity of tumor site in vivo, folds of SC” value with 4T1 tumor (subcutaneous tumor model, 2 mg/kg, 24 h after injection, n = 3) was determined as 2.5 folds. In addition, the “Solubility in aqueous solutions with Cremophor EL” value in series [8] (aqueous solutions with 1 % Cremophor EL (CEL)) is reported as “good solubility”. Moreover, the “Aggregation state from absorption spectra” value in series [8] (physiological saline containing 1% CEL and DMEM medium containing 0.05% CEL, compared with DMF) is reported as “remained monomer”. In [8] (pure water), the “Solubility in pure water” value is reported as “limited solubility”. In addition, in the series on 4T1 tumor model (2 mg/kg i.v., n = 5), the “Tumor volume without light versus PBS and Light groups” value is reported as “no significant difference”. For the same molecule, in the series with 4T1 tumor model (setting [10]), the “Apoptosis in tumor tissue (TUNEL) relative to SCL group” value was “twice that of SCL group”, the “Ki67 proliferation signal as % of PBS control group” value was 10% and the “Ki67 proliferation signal as fraction of SCL group” value was 1/4. For the same molecule, the “H&E pathology of heart, liver, spleen, lung and kidney” value in series [2] (after treatment, RSP injection and laser irradiation) is reported as “no obvious pathological phenomena”. In series [2], the “Mouse body weight change” value is on record as “no significant changes”. The “Dark toxicity: cell viability without light” value in the series on 4T1 cells [3] is “did no significantly decreased”. Also, the “Killing effect upon exposure to light compared with SC” value with 4T1 cells [3] (λ > 610 nm, 48 J/cm^2, 0 to 2 μM) is reported as “lower killing effect”. The “Lysosomal colocalization index (Pearson co-localization coefficient)” value with 4T1 cells [4] was 0.78.
